In ChEMBL document CHEMBL4138123, “Design, synthesis and biological evaluation of novel pyrazolochalcones as potential modulators of PI3K/Akt/mTOR pathway and inducers of apoptosis in breast cancer cells” (Eur J Med Chem, 2017):

Columns and labels:
Format in all cases: functional
[1] = tested on: HCT-116; experiment: Cytotoxicity against human HCT116 cells assessed as growth inhibition after 48 hrs by sulforhodamine B assay; settings: HCT-116, 48 h
[2] = tested on: HCT-15; experiment: Cytotoxicity against human HCT15 cells assessed as growth inhibition after 48 hrs by sulforhodamine B assay; settings: HCT-15, 48 h
[3] = tested on: SK-MEL-28; experiment: Cytotoxicity against human SK-MEL-28 cells assessed as growth inhibition after 48 hrs by sulforhodamine B assay; settings: SK-MEL-28, 48 h
[4] = tested on: UACC-62; experiment: Cytotoxicity against human UACC62 cells assessed as cell growth at 0.01 uM after 48 hrs by sulforhodamine B assay relative to control; settings: UACC-62, 48 h, read-out: Activity
[5] = tested on: NCI-H322M; experiment: Cytotoxicity against human NCI-H322M cells assessed as cell growth at 0.01 uM after 48 hrs by sulforhodamine B assay relative to control; settings: read-out: Activity
[6] = tested on: K562; experiment: Cytotoxicity against human K562 cells assessed as cell growth at 0.01 uM after 48 hrs by sulforhodamine B assay relative to control; settings: K562, 48 h, read-out: Activity
[7] = tested on: PC-3; experiment: Cytotoxicity against human PC3 cells assessed as cell growth at 0.01 uM after 48 hrs by sulforhodamine B assay relative to control; settings: PC-3, 48 h, read-out: Activity
[8] = tested on: NCI-H23; experiment: Cytotoxicity against human NCI-H23 cells assessed as cell growth at 0.1 uM after 48 hrs by sulforhodamine B assay relative to control; settings: NCI-H23, 48 h, read-out: Activity
[9] = tested on: NCI-H322M; experiment: Cytotoxicity against human NCI-H322M cells assessed as cell growth at 0.1 uM after 48 hrs by sulforhodamine B assay relative to control; settings: read-out: Activity
[10] = tested on: HCC 2998; experiment: Cytotoxicity against human HCC2998 cells assessed as cell growth at 0.1 uM after 48 hrs by sulforhodamine B assay relative to control; settings: HCC 2998, 48 h, read-out: Activity
[11] = tested on: SF-539; experiment: Cytotoxicity against human SF539 cells assessed as cell growth at 0.1 uM after 48 hrs by sulforhodamine B assay relative to control; settings: SF-539, 48 h, read-out: Activity
[12] = tested on: OVCAR-4; experiment: Cytotoxicity against human OVCAR4 cells assessed as cell growth at 0.1 uM after 48 hrs by sulforhodamine B assay relative to control; settings: OVCAR-4, 48 h, read-out: Activity
[13] = tested on: SN12C; experiment: Cytotoxicity against human SN12C cells assessed as cell growth at 0.1 uM after 48 hrs by sulforhodamine B assay relative to control; settings: read-out: Activity
[14] = tested on: HCT-116; experiment: Cytotoxicity against human HCT116 cells assessed as cell growth at 1 uM after 48 hrs by sulforhodamine B assay relative to control; settings: HCT-116, 48 h, read-out: Activity
[15] = tested on: OVCAR-8; experiment: Cytotoxicity against human OVCAR8 cells assessed as cell growth at 1 uM after 48 hrs by sulforhodamine B assay relative to control; settings: OVCAR-8, 48 h, read-out: Activity
[16] = tested on: NCI/ADR-RES; experiment: Cytotoxicity against human NCI/ADR-RES cells assessed as cell growth at 1 uM after 48 hrs by sulforhodamine B assay relative to control; settings: read-out: Activity
[17] = tested on: SK-OV-3; experiment: Cytotoxicity against human SKOV3 cells assessed as cell growth at 1 uM after 48 hrs by sulforhodamine B assay relative to control; settings: SK-OV-3, 48 h, read-out: Activity
[18] = tested on: TK-10; experiment: Cytotoxicity against human TK10 cells assessed as cell growth at 1 uM after 48 hrs by sulforhodamine B assay relative to control; settings: TK-10, 48 h, read-out: Activity
[19] = tested on: PC-3; experiment: Cytotoxicity against human PC3 cells assessed as cell growth at 1 uM after 48 hrs by sulforhodamine B assay relative to control; settings: PC-3, 48 h, read-out: Activity
[20] = tested on: CCRF-CEM; experiment: Cytotoxicity against human CCRF-CEM cells assessed as cell growth at 10 uM after 48 hrs by sulforhodamine B assay relative to control; settings: read-out: Activity
[21] = tested on: MOLT-4; experiment: Cytotoxicity against human MOLT4 cells assessed as cell growth at 10 uM after 48 hrs by sulforhodamine B assay relative to control; settings: MOLT-4, 48 h, read-out: Activity
[22] = tested on: NCI-H226; experiment: Cytotoxicity against human NCI-H226 cells assessed as cell growth at 10 uM after 48 hrs by sulforhodamine B assay relative to control; settings: NCI-H226, 48 h, read-out: Activity
[23] = tested on: MDA-MB-435; experiment: Cytotoxicity against human MDA-MB-435 cells assessed as cell growth at 10 uM after 48 hrs by sulforhodamine B assay relative to control; settings: MDA-MB-435, 48 h, read-out: Activity
[24] = tested on: SK-MEL-5; experiment: Cytotoxicity against human SK-MEL-5 cells assessed as cell growth at 10 uM after 48 hrs by sulforhodamine B assay relative to control; settings: SK-MEL-5, 48 h, read-out: Activity
[25] = tested on: UACC-62; experiment: Cytotoxicity against human UACC62 cells assessed as cell growth at 10 uM after 48 hrs by sulforhodamine B assay relative to control; settings: UACC-62, 48 h, read-out: Activity
[26] = tested on: RXF 393; experiment: Cytotoxicity against human RXF393 cells assessed as cell growth at 10 uM after 48 hrs by sulforhodamine B assay relative to control; settings: RXF 393, 48 h, read-out: Activity
[27] = tested on: MDA-MB-231; experiment: Cytotoxicity against human MDA-MB-231 cells assessed as cell growth at 10 uM after 48 hrs by sulforhodamine B assay relative to control; settings: MDA-MB-231, 48 h, read-out: Activity
[28] = tested on: HL-60(TB); experiment: Cytotoxicity against human HL-60(TB) cells assessed as cell growth at 100 uM after 48 hrs by sulforhodamine B assay relative to control; settings: HL-60, 48 h, read-out: Activity
[29] = tested on: RPMI-8226; experiment: Cytotoxicity against human RPMI8226 cells assessed as cell growth at 100 uM after 48 hrs by sulforhodamine B assay relative to control; settings: RPMI-8226, 48 h, read-out: Activity
[30] = tested on: OVCAR-4; experiment: Cytotoxicity against human OVCAR4 cells assessed as cell growth at 100 uM after 48 hrs by sulforhodamine B assay relative to control; settings: OVCAR-4, 48 h, read-out: Activity
[31] = tested on: OVCAR-8; experiment: Cytotoxicity against human OVCAR8 cells assessed as cell growth at 100 uM after 48 hrs by sulforhodamine B assay relative to control; settings: OVCAR-8, 48 h, read-out: Activity
[32] = tested on: 786-0; experiment: Cytotoxicity against human 786-0 cells assessed as cell growth at 100 uM after 48 hrs by sulforhodamine B assay relative to control; settings: 786-0, 48 h, read-out: Activity
[33] = tested on: MDA-MB-468; experiment: Cytotoxicity against human MDA-MB-468 cells assessed as cell growth at 100 uM after 48 hrs by sulforhodamine B assay relative to control; settings: MDA-MB-468, 48 h, read-out: Activity
[34] = tested on: DU-145; experiment: Cytotoxicity against human DU145 cells assessed as cell growth at 0.1 uM after 48 hrs by sulforhodamine B assay relative to control; settings: DU-145, 48 h, read-out: Activity
[35] = tested on: DU-145; experiment: Cytotoxicity against human DU145 cells assessed as cell growth at 100 uM after 48 hrs by sulforhodamine B assay relative to control; settings: DU-145, 48 h, read-out: Activity

COc1cc(-c2cc(/C=C/C(=O)c3ccc(F)c(F)c3)[nH]n2)cc(OC)c1OC
LC50 [1]: 94.2 µM
TGI [1]: 13.9 µM
LC50 [2]: > 100 µM
TGI [2]: > 100 µM
LC50 [3]: > 100 µM
TGI [3]: 28.2 µM
growth at 0.01 µM [4]: 97%
growth at 0.01 µM [5]: 94%
growth at 0.01 µM [6]: 100%
growth at 0.01 µM [7]: 98%
growth at 0.1 µM [8]: 92%
growth at 0.1 µM [9]: 94%
growth at 0.1 µM [10]: 92%
growth at 0.1 µM [11]: 97%
growth at 0.1 µM [12]: 111%
growth at 0.1 µM [13]: 94%
growth at 1 µM [14]: 113%
growth at 1 µM [15]: 89%
growth at 1 µM [16]: 95%
growth at 1 µM [17]: 90%
growth at 1 µM [18]: 85%
growth at 1 µM [19]: 70%
growth at 10 µM [20]: 7%
growth at 10 µM [21]: -4%
growth at 10 µM [22]: 16%
growth at 10 µM [23]: 5%
growth at 10 µM [24]: -21%
growth at 10 µM [25]: -13%
growth at 10 µM [26]: -20%
growth at 10 µM [27]: -38%
growth at 100 µM [28]: -49%
growth at 100 µM [29]: -36%
growth at 100 µM [30]: -3%
growth at 100 µM [31]: -12%
growth at 100 µM [32]: -47%
growth at 100 µM [33]: -26%

COc1ccc(C(=O)/C=C/c2cc(-c3ccc4c(c3)OCO4)n[nH]2)cc1OC
LC50 [1]: 56.2 µM
TGI [1]: 7.99 µM
LC50 [2]: > 100 µM
TGI [2]: > 100 µM
LC50 [3]: 48.6 µM
TGI [3]: 19.3 µM
growth at 0.01 µM [4]: 98%
growth at 0.01 µM [5]: 93%
growth at 0.01 µM [6]: 96%
growth at 0.01 µM [7]: 99%
growth at 0.1 µM [8]: 89%
growth at 0.1 µM [9]: 88%
growth at 0.1 µM [10]: 97%
growth at 0.1 µM [11]: 95%
growth at 0.1 µM [12]: 94%
growth at 0.1 µM [13]: 95%
growth at 0.1 µM [34]: 100%
growth at 1 µM [14]: 87%
growth at 1 µM [15]: 89%
growth at 1 µM [17]: 99%
growth at 1 µM [18]: 97%
growth at 1 µM [19]: 74%
growth at 10 µM [20]: -2%
growth at 10 µM [22]: 1%
growth at 10 µM [24]: 41%
growth at 10 µM [25]: 19%
growth at 10 µM [26]: -39%
growth at 10 µM [27]: -14%
growth at 100 µM [28]: -38%
growth at 100 µM [29]: -45%
growth at 100 µM [30]: -12%
growth at 100 µM [31]: -65%
growth at 100 µM [32]: -83%
growth at 100 µM [35]: -97%
growth at 100 µM [33]: -85%

COc1cc(-c2cc(/C=C/C(=O)c3ccc(Cl)c(Cl)c3)[nH]n2)cc(OC)c1OC
LC50 [1]: > 100 µM
TGI [1]: 21.5 µM
LC50 [3]: > 100 µM
TGI [3]: 66 µM
growth at 0.01 µM [4]: 97%
growth at 0.01 µM [5]: 89%
growth at 0.01 µM [6]: 99%
growth at 0.01 µM [7]: 95%
growth at 0.1 µM [8]: 92%
growth at 0.1 µM [9]: 92%
growth at 0.1 µM [10]: 97%
growth at 0.1 µM [11]: 94%
growth at 0.1 µM [12]: 106%
growth at 0.1 µM [13]: 96%
growth at 1 µM [14]: 80%
growth at 1 µM [15]: 88%
growth at 1 µM [16]: 92%
growth at 1 µM [17]: 89%
growth at 1 µM [18]: 93%
growth at 1 µM [19]: 87%
growth at 10 µM [20]: 9%
growth at 10 µM [21]: 24%
growth at 10 µM [22]: 67%
growth at 10 µM [23]: 37%
growth at 10 µM [24]: 62%
growth at 10 µM [25]: 63%
growth at 10 µM [26]: 9%
growth at 10 µM [27]: 47%
growth at 100 µM [28]: -33%
growth at 100 µM [29]: -25%
growth at 100 µM [30]: -22%
growth at 100 µM [31]: -36%
growth at 100 µM [32]: -10%
growth at 100 µM [33]: -37%
